Results on 1 compound are retold here after PMC11016601, “Exploring the bioaccessibility and intestinal absorption of major classes of pure phenolic compounds using in vitro simulated gastrointestinal digestion” (Heliyon, 2024).

Several values for one entry are separate records, joined by “and”; a condition that tells them apart may be missing. Equal entries are not always repeated. Marks after values point to notes of the source that are not given here.

A short description of series [1]: In vitro simulated gastrointestinal digestion (SGD, INFOGEST 2.0): concentration and bioaccessibility by UHPLC-DAD-MSn. The settings on record: for Bioaccessibility (%), initial solution (IS): reference. As for the experimental part:
Preliminary solubility tests in different solvents, namely water, sodium phosphate buffer (26.8 mM, pH 6.1), ethanol, and also a mixture of ethanol with both water and sodium phosphate buffer, were carried out for each PC (data not shown), to prevent erroneous data arising from compounds precipitation. Ethanol percentages used in these preliminary solubility tests were 10, 15, and 20% (v/v).
Each PC solubilized in ethanol:water (15% v/v) was then submitted to an in vitro SGD (INFOGEST 2.0), according to a standardized protocol (Fig. 2). In order to determine whether the interaction between the compounds and enzymes led to an underestimation of their content, each PC solution was submitted to the same digestion procedure, replacing the enzyme solutions with water, which were designed as controls, henceforth this will be the term used. Each sample and control were submitted to three independent in vitro digestion simulations, and after each digestion phase, a sample/control was collected and further analyzed and quantified by UHPLC-DAD-MSn.
Mouth digestion of each PC solution (1 mL) was diluted in 0.8 mL of simulated salivary fluid (SSF) and α-amylase (75 U mL-1). Then, the mixture was incubated for 2 min at 37 °C under agitation (200 rpm). In order to start gastric digestion, pH was adjusted to 3.0 using 1 M aqueous HCl and then, a pepsin solution (2000 U mL-1) and simulated gastric fluid (SGF) were added. Subsequently, the mixture was incubated for 2h, at 37 °C and 130 rpm orbital agitation for the stomach digestion. Finally, the small intestine digestion simulation was performed after pH adjustment to 7.0 using 1 M aqueous […] and the addition of pancreatin (100 U mL-1), bile salts solution (10 mM) and simulated intestinal fluid (SIF), during 2 h, at 37 °C with 45 rpm orbital agitation. Natural small intestine absorption was also simulated, by placing the remaining sample in a dialysis membrane, and immersed in distilled water overnight at room temperature.
At each sampling point, an aliquot (0.5 mL) from each of the three replicates was collected. The enzymatic activity was stopped immediately by adding pure methanol to each aliquot (1:1, v/v) to promote enzyme precipitation and subsequently centrifuged at 10 000 g and 4 °C for 5 min. The supernatants were filtered with a 0.2 μm nylon filter. To determine the concentration of each sample or control, it was considered the following dilution factor – 1:2, 1:4 and 1:8 for oral, gastric and intestinal digestion phase, respectively.
The bioaccessibility percentage (B%) of each PC was calculated using equation (1):(1) B(%)=[DS]/[IS]×100 where IS is the initial concentration of PCs in ethanol:water (15% v/v) solutions, DS is the concentration of each collected sample or control (without enzymes).
The values of B% and IA% were the average of the three replicates performed, with the calculated standard deviation.
PCs were analyzed in a UHPLC system equipped with a variable loop Accela autosampler (set at 16 °C), an Accela 600 LC pump, and an Accela 80 Hz photo diode array detector (DAD) (Thermo Fisher Scientific, San Jose, CA, USA). Each sample was prepared in methanol:water (1:1, v/v) and filtered through a 0.2 μm nylon syringe filter. […] The mobile phase was composed of acetonitrile (A) and water:acetonitrile (99:1, v/v) (B), both with 0.1 % of formic acid. The gradient elution was performed as follows: 0–1min: 99% B; 1–17 min: 99-73% B, 17–20 min: 73-0% B, 20–25 min: 0–99% B, followed by re-equilibration of the column at 99% B for 4 min.

On the set-up of series [2]: method as in earlier work. The settings on record: cited from earlier work.
The mark [3] stands for this setting: controls (without enzymes), gastric phase.
Where [4] appears, read: controls (without enzymes), initial solution.
Where [5] appears, read: controls (without enzymes), intestinal phase.
[6] abbreviates: controls (without enzymes), oral phase.

`O=c1cc(-c2ccc(O)cc2)oc2cc(O)cc(O)c12` [APG, apigenin]: the “Bioaccessibility (%), oral phase (O)” value in series [1] (2 min) was 127.10 ± 1.17 ^a,b %; in series [1] (setting [6]) it was 134.98 ± 8.17 ^b %; in series [1] (samples with enzymes, oral phase) it was 127.10%. For the same compound, the “Bioaccessibility (%), gastric phase (G)” value in series [1] (setting [3]) was 15.20% and 15.20 ± 3.04 ^d %; in series [1] (samples with enzymes, gastric phase) it was 27.60% and 27.60 ± 5.02^ c %. Moreover, the “Concentration, gastric phase (G)” value was 1420 ± 280 ng/mL in series [1] (setting [3]) and 2580 ± 470 ng/mL in series [1] (samples with enzymes, after gastric digestion pH 3.0). The “Concentration, initial solution (IS)” value was 9330 ng/mL in series [1] (setting [4]) and 9330 ng/mL in series [1] (samples, initial ethanol:water (15% v/v) solution). In addition, the “Bioaccessibility (%), initial solution (IS)” value was 100 ^c % in series [1] (setting [4]) and 100 ^b % in series [1] (samples, initial solution). Also, the “Bioaccessibility (%), intestinal phase (I)” value in series [1] (setting [5]) is 158.32 ± 5.05 ^a %; in series [1] (samples with enzymes, intestinal phase) it was 147.20% and 147.20 ± 13.05 ^a %. For the same compound, the “Concentration, intestinal phase (I)” value in series [1] (setting [5]) is 14780 ± 470 ng/mL; in series [1] (samples with enzymes, after intestinal digestion pH 7.0) it was 13740 ± 1220 ng/mL. In addition, the “Concentration, oral phase (O)” value is 12600 ± 760 ng/mL in series [1] (setting [6]) and 11860 ± 110 ng/mL in series [1] (samples with enzymes, after oral digestion). In addition, the “bioaccessible fraction after intestinal digestion relative to the gastric phase” value in series [2] is 2 fold.
